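Exposure lasted 48 hours, with cells grown in 96-well plates and compounds tested at five concentrations. The concentration for full growth arrest is given as TGI.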
Assays:
Assay in all cases: NCI anticancer screen, dose series, 48 h
786-0 renal = system: 786-0 renal
A498 renal = system: A498 renal
ACHN renal = system: ACHN renal
CAKI-1 renal = system: CAKI-1 renal
CCRF-CEM leukemia = system: CCRF-CEM leukemia
COLO 205 colon = system: COLO 205 colon
EKVX NSCLC = system: EKVX NSCLC
HCC-2998 colon = system: HCC-2998 colon
HCT-116 colon = system: HCT-116 colon
HCT-15 colon = system: HCT-15 colon
HOP-62 NSCLC = system: HOP-62 NSCLC
HOP-92 NSCLC = system: HOP-92 NSCLC
HS 578T breast = system: HS 578T breast
HT29 colon = system: HT29 colon
IGROV1 ovarian = system: IGROV1 ovarian
K-562 leukemia = system: K-562 leukemia
KM12 colon = system: KM12 colon
LOX IMVI melanoma = system: LOX IMVI melanoma
M14 melanoma = system: M14 melanoma
MDA-MB-231 breast = system: MDA-MB-231 breast
MDA-MB-435 = system: MDA-MB-435
MOLT-4 leukemia = system: MOLT-4 leukemia
NCI-H226 lung = system: NCI-H226 lung
NCI-H23 lung = system: NCI-H23 lung
NCI-H460 lung = system: NCI-H460 lung
NCI-H522 lung = system: NCI-H522 lung
NCI/ADR-RES ovarian = system: NCI/ADR-RES ovarian
OVCAR-3 ovarian = system: OVCAR-3 ovarian
OVCAR-4 ovarian = system: OVCAR-4 ovarian
OVCAR-5 ovarian = system: OVCAR-5 ovarian
OVCAR-8 ovarian = system: OVCAR-8 ovarian
PC-3 prostate = system: PC-3 prostate
RPMI-8226 leukemia = system: RPMI-8226 leukemia
SF-268 CNS = system: SF-268 CNS
SF-295 CNS = system: SF-295 CNS
SF-539 CNS = system: SF-539 CNS
SK-MEL-2 melanoma = system: SK-MEL-2 melanoma
SK-MEL-28 melanoma = system: SK-MEL-28 melanoma
SK-MEL-5 melanoma = system: SK-MEL-5 melanoma
SK-OV-3 ovarian = system: SK-OV-3 ovarian
SN12C renal = system: SN12C renal
SNB-19 CNS = system: SNB-19 CNS
SNB-75 CNS = system: SNB-75 CNS
SR leukemia = system: SR leukemia
SW-620 colon = system: SW-620 colon
T-47D breast = system: T-47D breast
TK-10 renal = system: TK-10 renal
U251 CNS = system: U251 CNS
UO-31 renal = system: UO-31 renal
DU-145 prostate = system: DU-145 prostate
HL-60(TB) leukemia = system: HL-60(TB) leukemia
MCF7 breast = system: MCF7 breast
RXF 393 renal = system: RXF 393 renal
UACC-257 melanoma = system: UACC-257 melanoma
UACC-62 melanoma = system: UACC-62 melanoma

`Cc1cc(-c2no[n+]([O-])c2-c2cc(C)sc2S(C)(=O)=O)c(S(C)(=O)=O)s1` gave a TGI (786-0 renal) greater than 100 µM, a TGI (A498 renal) greater than 100 µM and a TGI (ACHN renal) greater than 100 µM. The TGI (CAKI-1 renal) was greater than 100 µM, the TGI (CCRF-CEM leukemia) was greater than 100 µM and the TGI (COLO 205 colon) was greater than 100 µM. It also gave a TGI (EKVX NSCLC) greater than 100 µM, a TGI (HCC-2998 colon) greater than 100 µM and a TGI (HCT-116 colon) greater than 100 µM. For the same compound, the TGI (HCT-15 colon) was greater than 100 µM, the TGI (HOP-62 NSCLC) was greater than 100 µM and the TGI (HOP-92 NSCLC) was greater than 100 µM. The TGI (HS 578T breast) was greater than 100 µM, the TGI (HT29 colon) was greater than 100 µM and the TGI (IGROV1 ovarian) was greater than 100 µM. For the same compound, the TGI (K-562 leukemia) was greater than 100 µM, the TGI (KM12 colon) was greater than 100 µM and the TGI (LOX IMVI melanoma) was greater than 100 µM. The TGI (M14 melanoma) was greater than 100 µM, the TGI (MDA-MB-231 breast) was greater than 100 µM and the TGI (MDA-MB-435) was greater than 100 µM. The TGI (MOLT-4 leukemia) was greater than 100 µM, the TGI (NCI-H226 lung) was greater than 100 µM and the TGI (NCI-H23 lung) was greater than 100 µM. The TGI (NCI-H460 lung) was greater than 100 µM, the TGI (NCI-H522 lung) was greater than 100 µM and the TGI (NCI/ADR-RES ovarian) was greater than 100 µM. For the same compound, the TGI (OVCAR-3 ovarian) was greater than 100 µM, the TGI (OVCAR-4 ovarian) was greater than 100 µM and the TGI (OVCAR-5 ovarian) was greater than 100 µM. The TGI (OVCAR-8 ovarian) was greater than 100 µM, the TGI (PC-3 prostate) was greater than 100 µM and the TGI (RPMI-8226 leukemia) was greater than 100 µM. For the same compound, the TGI (SF-268 CNS) was greater than 100 µM, the TGI (SF-295 CNS) was greater than 100 µM and the TGI (SF-539 CNS) was greater than 100 µM. The TGI (SK-MEL-2 melanoma) was greater than 100 µM, the TGI (SK-MEL-28 melanoma) was greater than 100 µM and the TGI (SK-MEL-5 melanoma) was greater than 100 µM. It also gave a TGI (SK-OV-3 ovarian) greater than 100 µM, a TGI (SN12C renal) greater than 100 µM and a TGI (SNB-19 CNS) of 75.1 µM. It also gave a TGI (SNB-75 CNS) greater than 100 µM, a TGI (SR leukemia) greater than 100 µM and a TGI (SW-620 colon) greater than 100 µM. For the same compound, the TGI (T-47D breast) was greater than 100 µM, the TGI (TK-10 renal) was greater than 100 µM and the TGI (U251 CNS) was greater than 100 µM. The TGI (UO-31 renal) was greater than 100 µM.
With `O=C1CC(c2ccccc2Cl)Oc2ccccc21` (configuration not stated) the TGI (786-0 renal) was 89.5 µM, the TGI (A498 renal) was greater than 100 µM and the TGI (CAKI-1 renal) was greater than 100 µM. For the same compound, the TGI (CCRF-CEM leukemia) was greater than 100 µM, the TGI (COLO 205 colon) was 68.2 µM and the TGI (DU-145 prostate) was greater than 100 µM. It also gave a TGI (EKVX NSCLC) greater than 100 µM, a TGI (HCC-2998 colon) greater than 100 µM and a TGI (HCT-116 colon) greater than 100 µM. It also gave a TGI (HCT-15 colon) of 61 µM, a TGI (HL-60(TB) leukemia) greater than 100 µM and a TGI (HOP-62 NSCLC) of 91.1 µM. The TGI (HOP-92 NSCLC) was 75.2 µM, the TGI (HS 578T breast) was greater than 100 µM and the TGI (HT29 colon) was 22.7 µM. It also gave a TGI (IGROV1 ovarian) greater than 100 µM, a TGI (K-562 leukemia) of 40.8 µM and a TGI (KM12 colon) of 81.7 µM. The TGI (LOX IMVI melanoma) was greater than 100 µM, the TGI (M14 melanoma) was greater than 100 µM and the TGI (MCF7 breast) was 45.4 µM. The TGI (MDA-MB-231 breast) was 47.4 µM, the TGI (MDA-MB-435) was 43.7 µM and the TGI (NCI-H226 lung) was 30.1 µM. It also gave a TGI (NCI-H460 lung) greater than 100 µM, a TGI (NCI/ADR-RES ovarian) of 48.8 µM and a TGI (OVCAR-4 ovarian) greater than 100 µM. It also gave a TGI (OVCAR-8 ovarian) of 87.1 µM, a TGI (PC-3 prostate) greater than 100 µM and a TGI (RPMI-8226 leukemia) of 40.7 µM. The TGI (RXF 393 renal) was 63.5 µM, the TGI (SF-268 CNS) was greater than 100 µM and the TGI (SF-295 CNS) was greater than 100 µM. For the same compound, the TGI (SF-539 CNS) was 34.8 µM, the TGI (SK-MEL-2 melanoma) was 59.9 µM and the TGI (SK-MEL-28 melanoma) was greater than 100 µM. The TGI (SK-MEL-5 melanoma) was greater than 100 µM, the TGI (SK-OV-3 ovarian) was greater than 100 µM and the TGI (SNB-19 CNS) was greater than 100 µM. It also gave a TGI (SNB-75 CNS) greater than 100 µM, a TGI (SR leukemia) of 50.9 µM and a TGI (SW-620 colon) of 67.5 µM. It also gave a TGI (T-47D breast) greater than 100 µM, a TGI (TK-10 renal) greater than 100 µM and a TGI (U251 CNS) of 83 µM. The TGI (UACC-257 melanoma) was greater than 100 µM, the TGI (UACC-62 melanoma) was greater than 100 µM and the TGI (UO-31 renal) was greater than 100 µM.

Source: PubChem BioAssay (NCI)
